pIC50: −log10 of the molar value.
How the values were obtained:
[1] = target: Protein kinase C gamma type (Homo sapiens) (UniProt P05129); assay: % Activity remaining of PKC gamma in the Dundee kinase panel at 1.0 µM; conditions: Compound concentration 1.0 uM
[2] = target: Serine/threonine-protein kinase MARK1 (Homo sapiens) (UniProt Q9P0L2); assay: % Activity remaining of MARK1 in the Dundee kinase panel at 1.0 µM; conditions: Compound concentration 1.0 uM
[3] = target: Mitogen-activated protein kinase kinase kinase kinase 5 (Homo sapiens) (UniProt Q9Y4K4); assay: % Activity remaining of MAP4K5 in the Dundee kinase panel at 1.0 µM; conditions: Compound concentration 1.0 uM
[4] = target: Serine/threonine-protein kinase pim-3 (Homo sapiens) (UniProt Q86V86); assay: % Activity remaining of PIM3 in the Dundee kinase panel at 1.0 µM; conditions: Compound concentration 1.0 uM
[5] = target: Serine/threonine-protein kinase Nek2 (Homo sapiens) (UniProt P51955); assay: % Activity remaining of NEK2a in the Dundee kinase panel at 1.0 µM; conditions: Compound concentration 1.0 uM
Serine/threonine-protein kinase Nek2 (Homo sapiens), sequence (P51955 whole entry): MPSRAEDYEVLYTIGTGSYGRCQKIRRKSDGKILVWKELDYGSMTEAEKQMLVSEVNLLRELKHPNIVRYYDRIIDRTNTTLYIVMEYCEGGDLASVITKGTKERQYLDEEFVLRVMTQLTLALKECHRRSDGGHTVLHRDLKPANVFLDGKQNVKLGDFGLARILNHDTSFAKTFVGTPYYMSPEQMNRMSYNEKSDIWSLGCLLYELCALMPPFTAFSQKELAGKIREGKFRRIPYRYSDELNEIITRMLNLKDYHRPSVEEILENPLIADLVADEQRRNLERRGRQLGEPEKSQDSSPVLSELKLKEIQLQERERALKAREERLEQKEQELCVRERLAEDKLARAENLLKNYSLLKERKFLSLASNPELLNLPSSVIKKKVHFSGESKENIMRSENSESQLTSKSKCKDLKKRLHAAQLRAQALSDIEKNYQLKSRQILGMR

[6] = target: Serine/threonine-protein kinase WNK1 (Homo sapiens) (UniProt Q9H4A3); assay: % Activity remaining of WNK1 in the Dundee kinase panel at 1.0 µM; conditions: Compound concentration 1.0 uM
[7] = target: Serine/threonine-protein kinase Sgk3 (Homo sapiens) (UniProt Q96BR1); assay: SGK3 degradation assay at 100 nM (48 h incubation, no effect on RPS6KB1, SGK1 and SGK2); format: functional; design: compound concentration 100 nM
Serine/threonine-protein kinase Sgk3 (Homo sapiens), sequence (Q96BR1 whole entry): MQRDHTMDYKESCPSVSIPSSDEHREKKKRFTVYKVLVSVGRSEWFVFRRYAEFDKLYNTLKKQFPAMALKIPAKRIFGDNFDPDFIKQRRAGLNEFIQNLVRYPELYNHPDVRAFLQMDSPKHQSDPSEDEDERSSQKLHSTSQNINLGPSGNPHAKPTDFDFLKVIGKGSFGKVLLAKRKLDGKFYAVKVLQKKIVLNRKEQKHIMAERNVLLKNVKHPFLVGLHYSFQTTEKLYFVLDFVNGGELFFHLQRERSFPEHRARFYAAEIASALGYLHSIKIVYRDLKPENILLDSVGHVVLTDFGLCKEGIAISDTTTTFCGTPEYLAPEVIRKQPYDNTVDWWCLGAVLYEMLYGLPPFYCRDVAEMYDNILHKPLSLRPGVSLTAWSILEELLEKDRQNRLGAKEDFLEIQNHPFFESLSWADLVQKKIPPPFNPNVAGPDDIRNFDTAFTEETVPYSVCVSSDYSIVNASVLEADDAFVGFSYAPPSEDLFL

[8] = target: Serine/threonine-protein kinase MARK2 (Homo sapiens) (UniProt Q7KZI7); assay: % Activity remaining of MARK2 in the Dundee kinase panel at 1.0 µM; conditions: Compound concentration 1.0 uM
[9] = target: RAC-beta serine/threonine-protein kinase (Homo sapiens) (UniProt P31751); assay: % Activity remaining of PKB beta in the Dundee kinase panel at 1.0 µM; conditions: Compound concentration 1.0 uM
[10] = target: Tyrosine-protein kinase Yes (Homo sapiens) (UniProt P07947); assay: % Activity remaining of YES1 in the Dundee kinase panel at 1.0 µM; conditions: Compound concentration 1.0 uM
Tyrosine-protein kinase Yes (Homo sapiens), sequence (P07947 2-543 limits assumed): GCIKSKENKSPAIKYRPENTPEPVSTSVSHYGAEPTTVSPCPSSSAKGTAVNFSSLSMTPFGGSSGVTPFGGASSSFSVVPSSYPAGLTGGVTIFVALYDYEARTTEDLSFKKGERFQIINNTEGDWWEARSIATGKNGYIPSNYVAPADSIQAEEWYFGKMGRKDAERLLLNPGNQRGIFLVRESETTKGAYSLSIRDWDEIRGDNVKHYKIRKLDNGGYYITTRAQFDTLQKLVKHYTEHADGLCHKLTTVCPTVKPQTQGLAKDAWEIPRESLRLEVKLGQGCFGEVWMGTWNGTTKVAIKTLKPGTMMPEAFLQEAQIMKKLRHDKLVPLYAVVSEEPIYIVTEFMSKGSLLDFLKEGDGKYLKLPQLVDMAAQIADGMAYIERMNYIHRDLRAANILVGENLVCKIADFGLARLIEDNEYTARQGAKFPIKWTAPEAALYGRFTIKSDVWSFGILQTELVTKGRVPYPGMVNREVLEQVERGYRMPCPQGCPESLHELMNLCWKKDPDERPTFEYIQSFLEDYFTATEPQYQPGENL

[11] = target: MAP/microtubule affinity-regulating kinase 3 (Homo sapiens) (UniProt P27448); assay: % Activity remaining of MARK3 in the Dundee kinase panel at 1.0 µM; conditions: Compound concentration 1.0 uM
[12] = target: Serine/threonine-protein kinase TBK1 (Homo sapiens) (UniProt Q9UHD2); assay: % Activity remaining of TBK1 in the Dundee kinase panel at 1.0 µM; conditions: Compound concentration 1.0 uM
Serine/threonine-protein kinase TBK1 (Homo sapiens), sequence (Q9UHD2 whole entry): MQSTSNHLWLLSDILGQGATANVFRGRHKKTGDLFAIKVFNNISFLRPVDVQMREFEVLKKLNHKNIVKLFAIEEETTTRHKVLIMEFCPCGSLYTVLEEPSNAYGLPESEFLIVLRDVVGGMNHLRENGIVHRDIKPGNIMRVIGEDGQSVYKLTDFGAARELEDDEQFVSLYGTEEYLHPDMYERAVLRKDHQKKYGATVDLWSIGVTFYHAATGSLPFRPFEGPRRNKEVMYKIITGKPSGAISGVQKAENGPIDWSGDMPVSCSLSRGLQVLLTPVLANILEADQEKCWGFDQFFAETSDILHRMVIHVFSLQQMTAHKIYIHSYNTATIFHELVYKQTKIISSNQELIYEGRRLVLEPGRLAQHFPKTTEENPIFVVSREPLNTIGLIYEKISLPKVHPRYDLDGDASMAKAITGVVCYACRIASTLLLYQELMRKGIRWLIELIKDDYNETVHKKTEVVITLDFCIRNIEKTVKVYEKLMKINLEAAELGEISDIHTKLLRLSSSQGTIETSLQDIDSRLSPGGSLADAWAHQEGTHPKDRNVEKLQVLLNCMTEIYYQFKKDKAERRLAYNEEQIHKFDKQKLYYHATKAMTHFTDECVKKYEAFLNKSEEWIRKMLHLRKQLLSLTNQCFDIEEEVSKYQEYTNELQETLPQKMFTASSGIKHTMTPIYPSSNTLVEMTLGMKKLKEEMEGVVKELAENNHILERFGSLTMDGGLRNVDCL

[13] = target: Mitogen-activated protein kinase kinase kinase kinase 3 (Homo sapiens) (UniProt Q8IVH8); assay: % Activity remaining of MAP4K3 in the Dundee kinase panel at 1.0 µM; conditions: Compound concentration 1.0 uM
[14] = target: Serine/threonine-protein kinase 33 (Homo sapiens) (UniProt Q9BYT3); assay: % Activity remaining of STK33 in the Dundee kinase panel at 1.0 µM; conditions: Compound concentration 1.0 uM
[15] = target: Ephrin type-A receptor 2 (Homo sapiens) (UniProt P29317); assay: % Activity remaining of EPH-A2 in the Dundee kinase panel at 1.0 µM; conditions: Compound concentration 1.0 uM
Ephrin type-A receptor 2 (Homo sapiens), sequence (P29317 whole entry): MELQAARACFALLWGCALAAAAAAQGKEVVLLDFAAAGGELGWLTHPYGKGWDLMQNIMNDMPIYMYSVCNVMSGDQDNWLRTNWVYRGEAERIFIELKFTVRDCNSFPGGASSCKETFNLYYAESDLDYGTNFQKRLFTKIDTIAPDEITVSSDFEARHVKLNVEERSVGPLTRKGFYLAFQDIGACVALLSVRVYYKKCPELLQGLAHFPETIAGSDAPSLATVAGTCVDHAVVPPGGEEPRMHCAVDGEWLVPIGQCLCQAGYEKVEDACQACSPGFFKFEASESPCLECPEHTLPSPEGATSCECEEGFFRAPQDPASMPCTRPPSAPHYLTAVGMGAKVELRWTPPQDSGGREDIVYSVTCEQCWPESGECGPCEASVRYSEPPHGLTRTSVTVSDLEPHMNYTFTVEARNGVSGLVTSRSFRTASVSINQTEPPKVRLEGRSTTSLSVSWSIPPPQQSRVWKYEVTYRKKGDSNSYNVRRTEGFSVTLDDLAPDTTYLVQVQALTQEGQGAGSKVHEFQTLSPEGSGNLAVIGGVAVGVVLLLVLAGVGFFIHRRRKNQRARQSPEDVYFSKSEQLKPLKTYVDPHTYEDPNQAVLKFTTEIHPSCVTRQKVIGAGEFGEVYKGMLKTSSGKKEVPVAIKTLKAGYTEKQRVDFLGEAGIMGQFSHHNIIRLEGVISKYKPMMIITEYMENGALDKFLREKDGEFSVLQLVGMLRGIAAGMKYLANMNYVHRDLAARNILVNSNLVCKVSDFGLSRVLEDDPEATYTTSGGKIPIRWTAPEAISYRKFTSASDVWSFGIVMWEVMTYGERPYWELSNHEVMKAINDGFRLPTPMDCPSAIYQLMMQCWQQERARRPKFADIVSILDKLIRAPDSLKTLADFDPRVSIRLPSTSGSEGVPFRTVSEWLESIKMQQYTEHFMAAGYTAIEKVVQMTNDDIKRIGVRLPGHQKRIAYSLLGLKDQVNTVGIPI

[16] = target: RAC-alpha serine/threonine-protein kinase (Homo sapiens) (UniProt P31749); assay: % Activity remaining of PKB alpha in the Dundee kinase panel at 1.0 µM; conditions: Compound concentration 1.0 uM
[17] = target: Mitogen-activated protein kinase 13 (Homo sapiens) (UniProt O15264); assay: % Activity remaining of p38 delta MAPK in the Dundee kinase panel at 1.0 µM; conditions: Compound concentration 1.0 uM
[18] = target: Testis-specific serine/threonine-protein kinase 1 (Homo sapiens) (UniProt Q9BXA7); assay: % Activity remaining of TSSK1 in the Dundee kinase panel at 1.0 µM; conditions: Compound concentration 1.0 uM
[19] = target: Homeodomain-interacting protein kinase 2 (Homo sapiens) (UniProt Q9H2X6); assay: % Activity remaining of HIPK2 in the Dundee kinase panel at 1.0 µM; conditions: Compound concentration 1.0 uM
[20] = target: Tyrosine-protein kinase SYK (Homo sapiens) (UniProt P43405); assay: % Activity remaining of SYK in the Dundee kinase panel at 1.0 µM; conditions: Compound concentration 1.0 uM
[21] = target: Serine/threonine-protein kinase pim-1 (Homo sapiens) (UniProt P11309); assay: % Activity remaining of PIM1 in the Dundee kinase panel at 1.0 µM; conditions: Compound concentration 1.0 uM
[22] = target: Serine/threonine-protein kinase PAK 6 (Homo sapiens) (UniProt Q9NQU5); assay: % Activity remaining of PAK6 in the Dundee kinase panel at 1.0 µM; conditions: Compound concentration 1.0 uM
Serine/threonine-protein kinase PAK 6 (Homo sapiens), sequence (Q9NQU5 whole entry, looked up): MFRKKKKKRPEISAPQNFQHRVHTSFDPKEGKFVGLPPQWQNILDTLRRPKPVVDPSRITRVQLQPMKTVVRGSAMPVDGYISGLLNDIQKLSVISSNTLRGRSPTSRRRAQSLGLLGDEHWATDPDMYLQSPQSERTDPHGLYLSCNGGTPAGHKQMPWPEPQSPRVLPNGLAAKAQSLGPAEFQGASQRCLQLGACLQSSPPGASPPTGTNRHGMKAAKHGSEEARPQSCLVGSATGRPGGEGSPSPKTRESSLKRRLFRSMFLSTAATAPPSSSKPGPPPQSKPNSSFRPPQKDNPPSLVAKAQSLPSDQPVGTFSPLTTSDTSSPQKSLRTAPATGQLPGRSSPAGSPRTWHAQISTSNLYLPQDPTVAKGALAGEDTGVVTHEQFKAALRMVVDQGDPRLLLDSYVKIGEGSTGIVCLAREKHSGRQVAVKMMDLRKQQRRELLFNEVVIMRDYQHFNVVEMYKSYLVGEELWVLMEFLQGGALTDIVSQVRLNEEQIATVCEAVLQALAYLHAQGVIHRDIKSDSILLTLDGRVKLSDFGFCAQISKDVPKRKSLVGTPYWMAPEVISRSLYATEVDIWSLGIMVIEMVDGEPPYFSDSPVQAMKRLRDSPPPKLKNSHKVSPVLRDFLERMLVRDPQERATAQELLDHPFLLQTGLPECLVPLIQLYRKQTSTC

[23] = target: TGF-beta receptor type-1 (Homo sapiens) (UniProt P36897); assay: % Activity remaining of TGFBR1 in the Dundee kinase panel at 1.0 µM; conditions: Compound concentration 1.0 uM
TGF-beta receptor type-1 (Homo sapiens), sequence (P36897 whole entry): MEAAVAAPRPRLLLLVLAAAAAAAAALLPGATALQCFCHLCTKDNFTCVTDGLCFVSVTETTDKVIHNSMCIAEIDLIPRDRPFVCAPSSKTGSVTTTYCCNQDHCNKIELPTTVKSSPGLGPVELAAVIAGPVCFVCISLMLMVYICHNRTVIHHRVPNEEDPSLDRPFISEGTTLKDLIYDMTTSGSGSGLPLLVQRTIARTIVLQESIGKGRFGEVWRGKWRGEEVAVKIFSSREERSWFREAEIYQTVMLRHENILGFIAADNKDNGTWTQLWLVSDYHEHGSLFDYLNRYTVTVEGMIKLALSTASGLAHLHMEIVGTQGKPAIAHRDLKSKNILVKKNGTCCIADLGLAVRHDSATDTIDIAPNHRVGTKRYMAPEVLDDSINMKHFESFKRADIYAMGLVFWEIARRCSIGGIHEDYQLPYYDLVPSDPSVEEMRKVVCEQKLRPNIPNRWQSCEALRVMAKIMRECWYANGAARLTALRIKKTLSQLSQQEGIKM

[24] = target: Mitogen-activated protein kinase 10 (Homo sapiens) (UniProt P53779); assay: % Activity remaining of JNK3 in the Dundee kinase panel at 1.0 µM; conditions: Compound concentration 1.0 uM
[25] = target: MAP kinase-activated protein kinase 3 (Homo sapiens) (UniProt Q16644); assay: % Activity remaining of MAPKAP-K3 in the Dundee kinase panel at 1.0 µM; conditions: Compound concentration 1.0 uM
[26] = target: Serine/threonine-protein kinase PAK 2 (Homo sapiens) (UniProt Q13177); assay: % Activity remaining of PAK2 in the Dundee kinase panel at 1.0 µM; conditions: Compound concentration 1.0 uM
[27] = target: T1, Serine/threonine-protein kinase Sgk1 (Homo sapiens) (UniProt O00141); assay: (§1) % Activity remaining of SGK1 in the Dundee kinase panel at 1.0 µM; conditions: Compound concentration 1.0 uM
T1 sequence (whole entry): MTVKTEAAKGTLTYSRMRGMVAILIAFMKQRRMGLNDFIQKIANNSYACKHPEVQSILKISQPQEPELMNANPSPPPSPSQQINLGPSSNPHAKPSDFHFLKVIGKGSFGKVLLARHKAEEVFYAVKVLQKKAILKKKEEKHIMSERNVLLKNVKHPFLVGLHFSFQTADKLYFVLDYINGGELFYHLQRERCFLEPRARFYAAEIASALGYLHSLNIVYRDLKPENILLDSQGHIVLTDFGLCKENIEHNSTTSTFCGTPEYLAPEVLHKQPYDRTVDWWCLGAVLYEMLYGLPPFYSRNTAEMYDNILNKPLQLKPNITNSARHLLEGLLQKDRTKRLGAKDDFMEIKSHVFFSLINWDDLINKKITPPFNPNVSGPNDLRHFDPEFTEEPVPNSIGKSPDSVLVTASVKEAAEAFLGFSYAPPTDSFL

[28] = target: Serine/threonine-protein kinase Sgk1 (Homo sapiens, UniProt O00141); assay: as §1
[29] = target: Rho-associated protein kinase 2 (Homo sapiens) (UniProt O75116); assay: % Activity remaining of ROCK 2 in the Dundee kinase panel at 1.0 µM; conditions: Compound concentration 1.0 uM
[30] = target: Ribosomal protein S6 kinase beta-1 (Homo sapiens, UniProt P23443); assay: % Activity remaining of S6K1 in the Dundee kinase panel at 1.0 µM; conditions: for % Activity remaining: Compound concentration 1.0 uM
[31] = target: Casein kinase II subunit alpha (Homo sapiens) (UniProt P68400); assay: % Activity remaining of CK2 in the Dundee kinase panel at 1.0 µM; conditions: Compound concentration 1.0 uM
Casein kinase II subunit alpha (Homo sapiens), sequence (P68400 whole entry, looked up): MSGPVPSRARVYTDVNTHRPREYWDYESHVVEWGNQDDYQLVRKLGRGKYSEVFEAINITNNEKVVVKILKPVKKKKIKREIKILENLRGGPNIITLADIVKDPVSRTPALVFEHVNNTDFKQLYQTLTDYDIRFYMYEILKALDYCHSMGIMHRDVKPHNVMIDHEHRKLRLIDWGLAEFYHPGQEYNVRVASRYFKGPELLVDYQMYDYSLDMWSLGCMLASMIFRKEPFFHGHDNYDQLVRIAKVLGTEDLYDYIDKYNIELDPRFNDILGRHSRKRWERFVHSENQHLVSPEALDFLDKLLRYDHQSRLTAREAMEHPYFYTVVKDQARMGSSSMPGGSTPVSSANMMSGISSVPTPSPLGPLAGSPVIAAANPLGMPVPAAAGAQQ

[32] = target: Cyclin-dependent kinase 2/cyclin A (Homo sapiens) (UniProt P24941+P20248+P78396); assay: % Activity remaining of CDK2-Cyclin A in the Dundee kinase panel at 1.0 µM; format: protein-complex assay; conditions: Compound concentration 1.0 uM
[33] = target: Interleukin-1 receptor-associated kinase 1 (Homo sapiens) (UniProt P51617); assay: % Activity remaining of IRAK1 in the Dundee kinase panel at 1.0 µM; conditions: Compound concentration 1.0 uM
[34] = target: Tyrosine-protein kinase JAK2 (Homo sapiens) (UniProt O60674); assay: % Activity remaining of JAK2 in the Dundee kinase panel at 1.0 µM; conditions: Compound concentration 1.0 uM

SMILES: Cc1ccc(F)c(S(=O)(=O)Nc2ccc(-c3nc(OC[C@H]4CN(CCCCCCOCCOCCOCC(=O)N[C@H](C(=O)N5C[C@H](O)C[C@H]5C(=O)NCc5ccc(-c6scnc6C)cc5)C(C)(C)C)CCO4)c4cn[nH]c4n3)cc2)c1
- % Activity remaining [1]: 103%
- % Activity remaining [2]: 99.4%
- % Activity remaining [3]: 98.6%
- % Activity remaining [4]: 88.1%
- % Activity remaining [5]: 162%
- % Activity remaining [6]: 93.8%
- Degradation [7]: 65%
- % Activity remaining [8]: 102%
- % Activity remaining [9]: 98.7%
- % Activity remaining [10]: 108%
- % Activity remaining [11]: 98.4%
- % Activity remaining [12]: 93.4%
- % Activity remaining [13]: 98.8%
- % Activity remaining [14]: 110%
- % Activity remaining [15]: 94.2%
- % Activity remaining [16]: 105%
- % Activity remaining [17]: 103%
- % Activity remaining [18]: 115%
- % Activity remaining [19]: 109%
- % Activity remaining [20]: 116%
- % Activity remaining [21]: 94.5%
- % Activity remaining [22]: 97.9%
- % Activity remaining [23]: 124%
- % Activity remaining [24]: 92.1%
- % Activity remaining [25]: 79%
- % Activity remaining [26]: 116%
- % Activity remaining [27]: 34.5%
- pIC50 [28]: 6.66
- % Activity remaining [29]: 113%
- pIC50 [30]: 5.74
- % Activity remaining [30]: 19%
- % Activity remaining [31]: 90.2%
- % Activity remaining [32]: 101%
- % Activity remaining [33]: 98.3%
- % Activity remaining [34]: 95.4%

SMILES: Cc1ccc(F)c(S(=O)(=O)Nc2ccc(-c3nc(OC[C@H]4CN(CCCCCCOCCOCCOCC(=O)N[C@H](C(=O)N5C[C@@H](O)C[C@H]5C(=O)NCc5ccc(-c6scnc6C)cc5)C(C)(C)C)CCO4)c4cn[nH]c4n3)cc2)c1
- % Activity remaining [1]: 99.9%
- % Activity remaining [2]: 93%
- % Activity remaining [3]: 101%
- % Activity remaining [4]: 88.8%
- % Activity remaining [5]: 139%
- % Activity remaining [6]: 96.6%
- Degradation [7]: 0%
- % Activity remaining [8]: 112%
- % Activity remaining [9]: 101%
- % Activity remaining [10]: 105%
- % Activity remaining [11]: 109%
- % Activity remaining [12]: 111%
- % Activity remaining [13]: 95.5%
- % Activity remaining [14]: 109%
- % Activity remaining [15]: 104%
- % Activity remaining [16]: 117%
- % Activity remaining [17]: 121%
- % Activity remaining [18]: 113%
- % Activity remaining [19]: 99.7%
- % Activity remaining [20]: 103%
- % Activity remaining [21]: 96.5%
- % Activity remaining [22]: 99.5%
- % Activity remaining [23]: 114%
- % Activity remaining [24]: 82.5%
- % Activity remaining [25]: 77%
- % Activity remaining [26]: 98.7%
- % Activity remaining [27]: 50.9%
- pIC50 [28]: 5.85
- % Activity remaining [29]: 119%
- pIC50 [30]: 5.77
- % Activity remaining [30]: 20.2%
- % Activity remaining [31]: 96.4%
- % Activity remaining [32]: 103%
- % Activity remaining [33]: 105%
- % Activity remaining [34]: 93.6%

Source: ChEMBL document CHEMBL5463727, “Data for DCP probe SGK3-PROTAC1” (2023)
